Assay results published in PubChem BioAssay (NCI).
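Assay format: 96-well plates, 48-hour exposure. TGI marks complete inhibition of growth.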

Columns and labels:
Experiment in all cases: DTP human tumour cell line panel, 48 h
LOX IMVI melanoma = tested on: LOX IMVI melanoma
HOP-18 NSCLC = tested on: HOP-18 NSCLC
SK-OV-3 ovarian = tested on: SK-OV-3 ovarian
SNB-19 CNS = tested on: SNB-19 CNS
SW-620 colon = tested on: SW-620 colon
HOP-62 NSCLC = tested on: HOP-62 NSCLC
SK-MEL-28 melanoma = tested on: SK-MEL-28 melanoma
HT29 colon = tested on: HT29 colon
786-0 renal = tested on: 786-0 renal
SNB-75 CNS = tested on: SNB-75 CNS
UACC-257 melanoma = tested on: UACC-257 melanoma
OVCAR-5 ovarian = tested on: OVCAR-5 ovarian
NCI-H226 lung = tested on: NCI-H226 lung
OVCAR-8 ovarian = tested on: OVCAR-8 ovarian
M19-MEL melanoma = tested on: M19-MEL melanoma
HCC-2998 colon = tested on: HCC-2998 colon
NCI/ADR-RES ovarian = tested on: NCI/ADR-RES ovarian
UACC-62 melanoma = tested on: UACC-62 melanoma
M14 melanoma = tested on: M14 melanoma
MALME-3M melanoma = tested on: MALME-3M melanoma
BT-549 breast = tested on: BT-549 breast
SF-295 CNS = tested on: SF-295 CNS
HL-60(TB) leukemia = tested on: HL-60(TB) leukemia
XF 498 CNS = tested on: XF 498 CNS
HS 578T breast = tested on: HS 578T breast
SF-539 CNS = tested on: SF-539 CNS
RPMI-8226 leukemia = tested on: RPMI-8226 leukemia
COLO 205 colon = tested on: COLO 205 colon
DMS 273 small cell lung = tested on: DMS 273 small cell lung
LXFL 529 NSCLC = tested on: LXFL 529 NSCLC
OVCAR-4 ovarian = tested on: OVCAR-4 ovarian
RXF 393 renal = tested on: RXF 393 renal
KM12 colon = tested on: KM12 colon
A549 NSCLC = tested on: A549 NSCLC
MCF7 breast = tested on: MCF7 breast
HCT-15 colon = tested on: HCT-15 colon
K-562 leukemia = tested on: K-562 leukemia
SK-MEL-2 melanoma = tested on: SK-MEL-2 melanoma
PC-3 prostate = tested on: PC-3 prostate
NCI-H460 lung = tested on: NCI-H460 lung
SN12C renal = tested on: SN12C renal
A498 renal = tested on: A498 renal
CAKI-1 renal = tested on: CAKI-1 renal
ACHN renal = tested on: ACHN renal
SNB-78 CNS = tested on: SNB-78 CNS
UO-31 renal = tested on: UO-31 renal
MDA-N = tested on: MDA-N
SR leukemia = tested on: SR leukemia
MOLT-4 leukemia = tested on: MOLT-4 leukemia
CCRF-CEM leukemia = tested on: CCRF-CEM leukemia
NCI-H23 lung = tested on: NCI-H23 lung
EKVX NSCLC = tested on: EKVX NSCLC
TK-10 renal = tested on: TK-10 renal
T-47D breast = tested on: T-47D breast
MDA-MB-231 breast = tested on: MDA-MB-231 breast
DU-145 prostate = tested on: DU-145 prostate
HOP-92 NSCLC = tested on: HOP-92 NSCLC
MDA-MB-435 = tested on: MDA-MB-435
HCT-116 colon = tested on: HCT-116 colon
SF-268 CNS = tested on: SF-268 CNS
U251 CNS = tested on: U251 CNS
NCI-H522 lung = tested on: NCI-H522 lung

Nc1cccc(-c2cc(=O)c3cc4c(cc3[nH]2)OCO4)c1
TGI (LOX IMVI melanoma): 59.7 µM | TGI (HOP-18 NSCLC): > 100 µM | TGI (SK-OV-3 ovarian): > 28.5 µM | TGI (SNB-19 CNS): > 48.5 µM | TGI (SW-620 colon): > 100 µM | TGI (HOP-62 NSCLC): 29.2 µM | TGI (SK-MEL-28 melanoma): > 100 µM | TGI (HT29 colon): 4.25 µM | TGI (786-0 renal): > 100 µM | TGI (SNB-75 CNS): > 100 µM | TGI (UACC-257 melanoma): > 100 µM | TGI (OVCAR-5 ovarian): > 100 µM | TGI (NCI-H226 lung): > 30.4 µM | TGI (OVCAR-8 ovarian): > 22.6 µM | TGI (M19-MEL melanoma): > 100 µM | TGI (HCC-2998 colon): 26.5 µM | TGI (NCI/ADR-RES ovarian): 2.95 µM | TGI (UACC-62 melanoma): 11.5 µM | TGI (M14 melanoma): > 79.6 µM | TGI (MALME-3M melanoma): > 100 µM | TGI (BT-549 breast): > 100 µM | TGI (SF-295 CNS): > 26.4 µM | TGI (HL-60(TB) leukemia): > 100 µM | TGI (XF 498 CNS): > 100 µM | TGI (HS 578T breast): 6.56 µM | TGI (SF-539 CNS): 2.79 µM | TGI (RPMI-8226 leukemia): > 100 µM | TGI (COLO 205 colon): 5.93 µM | TGI (DMS 273 small cell lung): 3.83 µM | TGI (LXFL 529 NSCLC): > 100 µM | TGI (OVCAR-4 ovarian): > 100 µM | TGI (RXF 393 renal): > 100 µM | TGI (KM12 colon): > 21.6 µM | TGI (A549 NSCLC): > 47.8 µM | TGI (MCF7 breast): > 100 µM | TGI (HCT-15 colon): 21.8 µM | TGI (K-562 leukemia): > 100 µM | TGI (SK-MEL-2 melanoma): 5.72 µM | TGI (PC-3 prostate): 13 µM | TGI (NCI-H460 lung): > 100 µM | TGI (SN12C renal): > 100 µM | TGI (A498 renal): > 100 µM | TGI (CAKI-1 renal): > 100 µM | TGI (ACHN renal): > 100 µM | TGI (SNB-78 CNS): > 100 µM | TGI (UO-31 renal): > 75.9 µM | TGI (MDA-N): 0.474 µM | TGI (SR leukemia): > 100 µM | TGI (MOLT-4 leukemia): > 100 µM | TGI (CCRF-CEM leukemia): > 100 µM | TGI (NCI-H23 lung): 22.6 µM | TGI (EKVX NSCLC): > 100 µM | TGI (TK-10 renal): > 100 µM | TGI (T-47D breast): > 100 µM | TGI (MDA-MB-231 breast): 8.64 µM | TGI (DU-145 prostate): > 100 µM | TGI (HOP-92 NSCLC): > 100 µM | TGI (MDA-MB-435): 0.415 µM | TGI (HCT-116 colon): 3.62 µM | TGI (SF-268 CNS): > 100 µM | TGI (U251 CNS): 24.9 µM | TGI (NCI-H522 lung): 0.881 µM
